Assay: xn = mol fraction of the nth substance listed

ClC(Cl)(Cl)Cl + CCO
Conditions | viscosity [mPa·s]
298.15 K, 101 kPa, x2 = 0.0247 | 0.89
298.15 K, 101 kPa, x2 = 0.0475 | 0.884
298.15 K, 101 kPa, x2 = 0.0769 | 0.883
298.15 K, 101 kPa, x2 = 0.1 | 0.872
298.15 K, 101 kPa, x2 = 0.1289 | 0.874
298.15 K, 101 kPa, x2 = 0.2438 | 0.886
298.15 K, 101 kPa, x2 = 0.27 | 0.886
298.15 K, 101 kPa, x2 = 0.37 | 0.915
298.15 K, 101 kPa, x2 = 0.3813 | 0.931
298.15 K, 101 kPa, x2 = 0.45 | 0.947
298.15 K, 101 kPa, x2 = 0.5136 | 0.974
298.15 K, 101 kPa, x2 = 0.645 | 1.023
298.15 K, 101 kPa, x2 = 0.69 | 1.037
298.15 K, 101 kPa, x2 = 0.768 | 1.068
298.15 K, 101 kPa, x2 = 0.77 | 1.064
298.15 K, 101 kPa, x2 = 0.83 | 1.079
298.15 K, 101 kPa, x2 = 0.8966 | 1.108
298.15 K, 101 kPa, x2 = 0.93 | 1.091
298.15 K, 101 kPa, x2 = 0.9687 | 1.1
303 K, 101.33 kPa, x2 = 0.37 | 0.8302
303 K, 101.33 kPa, x2 = 0.45 | 0.8567
303 K, 101.33 kPa, x2 = 0.53 | 0.8727
303 K, 101.33 kPa, x2 = 0.64 | 0.9314
303 K, 101.33 kPa, x2 = 0.69 | 0.9449
303 K, 101.33 kPa, x2 = 0.73 | 0.9479
303 K, 101.33 kPa, x2 = 0.83 | 0.9806
303 K, 101.33 kPa, x2 = 0.89 | 0.9857
303 K, 101.33 kPa, x2 = 0.91 | 1.007
303 K, 101.33 kPa, x2 = 0.93 | 0.9995
303 K, 101.33 kPa, x2 = 0.95 | 1.008
303.15 K, 101 kPa, x2 = 0.0565 | 0.8183
303.15 K, 101 kPa, x2 = 0.0932 | 0.8112
303.15 K, 101 kPa, x2 = 0.1798 | 0.8093
303.15 K, 101 kPa, x2 = 0.312 | 0.8313
303.15 K, 101 kPa, x2 = 0.4579 | 0.8759
303.15 K, 101 kPa, x2 = 0.5273 | 0.8994
303.15 K, 101 kPa, x2 = 0.6028 | 0.924
303.15 K, 101 kPa, x2 = 0.689 | 0.949
303.15 K, 101 kPa, x2 = 0.7868 | 0.974
303.15 K, 101 kPa, x2 = 0.867 | 0.9867
303.15 K, 101 kPa, x2 = 0.9134 | 0.9917
303.15 K, 101 kPa, x2 = 0.9566 | 0.9933
303.15 K, 101 kPa, x2 = 0.9724 | 0.9934
308.15 K, 101 kPa, x2 = 0.0247 | 0.773
308.15 K, 101 kPa, x2 = 0.0475 | 0.768
308.15 K, 101 kPa, x2 = 0.0769 | 0.762
308.15 K, 101 kPa, x2 = 0.1289 | 0.759
308.15 K, 101 kPa, x2 = 0.2438 | 0.768
308.15 K, 101 kPa, x2 = 0.3813 | 0.783
308.15 K, 101 kPa, x2 = 0.5136 | 0.825
308.15 K, 101 kPa, x2 = 0.645 | 0.857
308.15 K, 101 kPa, x2 = 0.768 | 0.891
308.15 K, 101 kPa, x2 = 0.8966 | 0.923
308.15 K, 101 kPa, x2 = 0.9687 | 0.914
313 K, 101.33 kPa, x2 = 0.37 | 0.7056
313 K, 101.33 kPa, x2 = 0.45 | 0.7242
313 K, 101.33 kPa, x2 = 0.53 | 0.7385
313 K, 101.33 kPa, x2 = 0.64 | 0.7801
313 K, 101.33 kPa, x2 = 0.69 | 0.7889
313 K, 101.33 kPa, x2 = 0.73 | 0.7949
313 K, 101.33 kPa, x2 = 0.83 | 0.8127
313 K, 101.33 kPa, x2 = 0.89 | 0.817
313 K, 101.33 kPa, x2 = 0.91 | 0.8276
313 K, 101.33 kPa, x2 = 0.93 | 0.8251
313 K, 101.33 kPa, x2 = 0.95 | 0.8358
318.15 K, 101 kPa, x2 = 0.0247 | 0.678
318.15 K, 101 kPa, x2 = 0.0475 | 0.676
318.15 K, 101 kPa, x2 = 0.0769 | 0.671
318.15 K, 101 kPa, x2 = 0.1289 | 0.664
318.15 K, 101 kPa, x2 = 0.2438 | 0.672
318.15 K, 101 kPa, x2 = 0.3813 | 0.672
318.15 K, 101 kPa, x2 = 0.5136 | 0.698
318.15 K, 101 kPa, x2 = 0.645 | 0.72
318.15 K, 101 kPa, x2 = 0.768 | 0.744
318.15 K, 101 kPa, x2 = 0.8966 | 0.773
318.15 K, 101 kPa, x2 = 0.9687 | 0.769
323 K, 101.33 kPa, x2 = 0.37 | 0.6106
323 K, 101.33 kPa, x2 = 0.45 | 0.6123
323 K, 101.33 kPa, x2 = 0.53 | 0.6316
323 K, 101.33 kPa, x2 = 0.64 | 0.6595
323 K, 101.33 kPa, x2 = 0.69 | 0.6672
323 K, 101.33 kPa, x2 = 0.73 | 0.6698
323 K, 101.33 kPa, x2 = 0.83 | 0.6807
323 K, 101.33 kPa, x2 = 0.89 | 0.6862
323 K, 101.33 kPa, x2 = 0.91 | 0.6947
323 K, 101.33 kPa, x2 = 0.93 | 0.6952
323 K, 101.33 kPa, x2 = 0.95 | 0.6993

ClC(Cl)(Cl)Cl + CCOC(C)=O
101.3 kPa
Conditions | viscosity [mPa·s]
298 K, x1 = 0.1581 | 0.517
298 K, x1 = 0.3048 | 0.57
298 K, x1 = 0.501 | 0.644
298 K, x1 = 0.6498 | 0.713
298 K, x1 = 0.8438 | 0.808
303.15 K, x2 = 0.1014 | 0.758
303.15 K, x2 = 0.1972 | 0.6991
303.15 K, x2 = 0.2976 | 0.6483
303.15 K, x2 = 0.394 | 0.6016
303.15 K, x2 = 0.4966 | 0.5603
303.15 K, x2 = 0.5986 | 0.5236
303.15 K, x2 = 0.6989 | 0.4883
303.15 K, x2 = 0.802 | 0.4572
303.15 K, x2 = 0.898 | 0.4289
318 K, x1 = 0.1518 | 0.4229
318 K, x1 = 0.3052 | 0.4655
318 K, x1 = 0.5035 | 0.5279
318 K, x1 = 0.6517 | 0.5797
318 K, x1 = 0.854 | 0.6674

Reference: the CheMixHub viscosity set
